From US9993492B2, “Lysophospholipids and lysophospholipid analogues against honeybee brood diseases” (University of Graz, priority 2013, dated 2018)
Read-outs that look alike come from different tables or passages of the source.

Legend:
[1] = test system: spores of Paenibacillus larvae; experiment: Spore assay in BHI liquid medium with plating for CFU; type: cell-based; conditions: lowest investigated dose (5 ppm); 114.6±28.4 spores per vial; 4 and 6 days
Procedure: A stock solution containing spores at a known concentration is used to inoculate c. 100 spores/mL medium. This assay is carried out in 20 mL cultivation tubes containing 1.0 mL of BHI (brain heart infusion) liquid medium. To this medium containing c. […] spores, test compounds are added at different concentrations (e.g., 2, 5 and 10 ppm), together with positive control (penicillin G at 5 ppm) and blank control.
To verify inoculation with c. 100 spores/mL, tubes containing BHI+spores are plated out immediately on agar plates to assess the number of colony forming units (CFU) after 6 days of incubation at 34.5° C.
For the control of viability of the spores, the turbidity (due to germination of spores and formation of vegetative forms) of tubes containing BHI+spores is evaluated on day 4.
For the test probes, bacterial growth is evaluated on day 4 and 6. For those tubes which are negative for bacterial growth, the whole medium (c. 1 mL) is plated onto agar plates and evaluated for CFUs after 2 and 6 days of incubation. CFUs visible after two days result from vegetative forms, while CFUs appearing after […] stem from spores.
The results of these tests allow identifying whether the tested compounds have an effect on spore germination in liquid medium and the viability of the spores as assessed by their germination on agar plates. […]

[2] = test system: Paenibacillus larvae; experiment: Antimicrobial assay in BHI liquid medium, vegetative forms of Paenibacillus larvae (MIC); type: cell-based; conditions: for MIC / MIC (ppm): vegetative forms of Pl, liquid medium; for inhibitory / antibacterial activity against Pl (in words): in vitro
Procedure: For the evaluation of certain fatty acids and phospholipids, overnight cultures of vegetative forms of Pl were used (for results see Table 1.1).
(§1) As test organisms, several different strains of Paenibacillus larvae were used.
(§2) Overnight cultures of the vegetative forms of bacteria were prepared in BHI (brain heart infusion) liquid medium.
From these overnight cultures, an inoculum of 50 μl is added to 1.0 ml of BHI liquid medium to perform the bacterial test in liquid medium. The compound 1-O-oleoyl-sn-glycero-3-phosphocholine (oleoyl-LPC) together with a positive control was then added at concentrations of 2, 5 and 10 ppm and the test tubes were incubated for 24 h at 34.5° C. Then, the extinction of the solution was measured photometrically.

[3] = test system: Melissococcus plutonius; experiment: Antimicrobial assay in liquid Basal Medium against Melissococcus plutonius (MIC); type: cell-based; conditions: for MIC / MIC (ppm): M. pl. in BM liquid medium, OE at 600 nm after 5 days; for inhibitory / antibacterial activity against M. pl. (in words): in vitro
Procedure: M. pl. was cultured in liquid Basal Medium (BM) for 4 days at 35° C. and from here serial dilutions were carried out to estimate CFU/ml by plating onto BM agar plates. 5 days later CFU were count and concentration was estimated to be 3.46*10^6 CFU/ml. For the antimicrobial assay, an inoculum of 50 μl of the liquid culture is added to 1 mL of BM liquid medium. A set of different substances were tested in different concentrations (2, 5 and 10 ppm) in order to find out their inhibitory effect against M. pl growth. For substances tested, concentration applied and results see table 1.2. Three replicates per substance were included in the experiment. 5 days after the experiment was started OE (optical extinction) was measured at 600 nm.

[4] = test system: honeybee larvae; type: in vivo; conditions: for Ndead larvae total: days 1-7; for toxicity to honeybee larvae (footnote b): in vivo
Procedure: First instar larvae were transferred into plastic queen cups and fed the following diets: On the first day 10 μL of diet containing 6% glucose, 6% fructose, 1% yeast extract and 50% royal jelly were fed. Test substances (1-O-oleoyl-sn-glycero-3-phosphocholine (oleoyl-LPC), stearic acid, lysophosphatidylinositol and linoleic acid) were added to the first diet in amounts of 0.5 to 10 μg/larvae. For infection with spores of Paenibacillus larvae, larvae were grafted into 5 μL of diet containing test substances and subsequently 5 μL of diet with about 50 added Pl spores were given. Larvae were not fed on the second day to assure the consumption of the given diet. On the third day 20 μL of diet containing 7.5% glucose, 7.5% fructose, 1.5% yeast extract and 50% royal jelly were fed. Amounts of 30, 40 and 60 μL of diet composed of 9% glucose, 9% fructose, 2% yeast extract and 50% royal jelly were fed on the 4th, 5th and 6th day (method modified after Aupinel et al. [Aupinel et al. 2005. Bull Insectol 58:107-111]. Larvae were incubated at 34.5° C. and 95% relative humidity which was reduced to 80% on day 7. The mortality was checked daily for the first 7 days and when individuals emerged from queen cups at day 18 after the transfer into cups. To reduce the time for sporulation of Pl in the lab for security reasons, infection tests with Pl spores were stopped at day 7 with some experiments extend to day 12.
Larvae were fed according to a slightly modified rearing method of Aupinel et al., (2005). Larvae were fed for 6 days with different amounts of diets which always contained 50% of an aqueous solution (A, B, C) and 50% royal jelly (w/w). The solutions consisted of yeast extract (A=2%, B=3%, C=4%), glucose and fructose (A=12%, B=15%, C=18% each). 50 g portions of royal jelly (purchased from the Styrian school of beekeepers) were freeze stored at −20° C. Once a day all components of the needed diet were mixed freshly, warmed and fed to the larvae with a micro-pipette. On day 1 and 2 each larva was fed with 10 μL of diet A, on day three with 20 μL of diet B, on day four (30 μL), five (40 μL) and six (50 μL) with diet C. This way, each larva was supported with a total amount of 160 μL of food. The test compounds (see Table 4) were added each at the respective concentration on day 1, i.e. stearic acid (10 μg/larva), lysophosphatidylinositol (5 μg/larva), linoleic acid (12 μg/larva) and oleyol-LPC (10 μg/larva). Each larva was checked for its state of health under the binocular before feeding. A larva was defined healthy when movements of spiracles could be observed and it was shiny and plump. Cups with dead larvae were removed from the plate to prevent infections. To avoid microbial contamination, feeding took place under a laminar flow. Larvae were incubated at 34.5° C. and 90% RH. The mortality rates of the larvae are given below in table 4.1.

[5] = test system: Paenibacillus larvae (Eric II test strain); experiment: Inhibition zone test on Columbia agar; type: cell-based; conditions: amount 30 μg; 24 h, 34.5° C.
Procedure: as §1, §2
For the inhibition zone test, 500 μL of overnight culture were added to 15-20 mL of Columbia agar, mixed and poured onto a petri dish. After the agar solidified, either punched wholes are filled with different amounts of test compounds or test compounds are pipetted on paper discs (5 mm Ø). The plate is then incubated for 24 h (34.5° C.) and zones of inhibition are measured and given in mm. Lactic acid and penicillin G were used as positive controls.
E II—Eric II (test strain of Pl)

[6] = Paenibacillus larvae, 24 h, read-out: MIC (ppm)
[7] = Paenibacillus larvae, read-out: MIC
[8] = Melissococcus plutonius, 120 h, read-out: MIC
[9] = Melissococcus plutonius, 120 h, read-out: MIC (ppm)
[10] = LPI 5 μg/larva added on day 1, Nlarvae 96
[11] = linoleic acid 12 μg/larva added on day 1, Nlarvae 48
[12] = stearic acid 10 μg/larva added on day 1, Nlarvae 96

Compound | MIC [2, 6] [µg/mL] | MIC [2, 7] [µM] | inhibitory / antibacterial activity against Pl (in words) [2] | MIC [3, 8] [µM] | MIC [3, 9] [µg/mL] | inhibitory / antibacterial activity against M. pl. (in words) [3] | other results
CCCCCCCCCCCCCCCCOP(=O)([O-])OCC[N+](C)(C)C [miltefosine, hexadecylphosphocholine] | 2 to 5 | 7.4 | good in vitro Pl and M. pl. inhibitory activity | 4.9 | 2 | good in vitro Pl and M. pl. inhibitory activity | killing of vegetative forms upon germination of spores [1]: all vegetative forms are killed
CCCCCCCCCCCCCCCCCC(=O)OC[C@@H](O)COP(=O)([O-])OCC[N+](C)(C)C [1-O-stearoyl-sn-glycero-3-phosphocholine] | 5 | > 9.5 | good in vitro Pl inhibitory activity | > 5.7 | 3 |  | 
CCCCCCCCCCCCCCCC(=O)O [palmitic acid] | > 20 | > 78 |  | > 40 | > 15 |  | 
L-α-lysophosphatidylinositol |  |  | did not show significant inhibitory activity |  |  | did not show significant inhibitory activity | Ndead larvae day 1 [4, 10]: 0; Ndead larvae day 2 [4, 10]: 0; Ndead larvae day 3 [4, 10]: 0; Ndead larvae day 4 [4, 10]: 0; Ndead larvae day 5 [4, 10]: 1; Ndead larvae day 6 [4, 10]: 1; Ndead larvae day 7 [4, 10]: 2; Ndead larvae total [4, 10]: 4; MIC (ppm) [2]: >50 ppm; MIC ([2]; read-out: MIC): >80 µM; MIC (ppm) [3]: >10 ppm; MIC ([3]; read-out: MIC): >15 µM
CCCCCCCCCCCCCCCCCCOP(=O)([O-])OC1CC[N+](C)(C)CC1 [perifosine, 1,1-dimethylpiperidinium-4-yl octadecyl phosphate] | 2 | 4.3 | good in vitro Pl and M. pl. inhibitory activity | 4.3 | 2 | good in vitro Pl and M. pl. inhibitory activity | 
CCCCC/C=C\C/C=C\CCCCCCCC(=O)O [linoleic acid] | 0.5 | 1.8 |  | 3.6 | 1 |  | toxicity to honeybee larvae (footnote b) [4]: ^btoxic to honeybee larvae; Ndead larvae day 1 [4, 11]: 0; Ndead larvae day 2 [4, 11]: 18; Ndead larvae day 3 [4, 11]: 2; Ndead larvae day 4 [4, 11]: 3; Ndead larvae day 5 [4, 11]: 1; Ndead larvae day 6 [4, 11]: 1; Ndead larvae day 7 [4, 11]: 1; Ndead larvae total [4, 11]: 26
lysophosphatidylcholine |  |  |  |  |  |  | larval mortality compared with control group ([4]; single dose fed on day one, up to 1-2% of fresh body weight of larvae younger than one day, assessed on day 7): no higher mortality than found in the control group; MIC (ppm) [2]: 2-5 ppm; MIC (ppm) [3]: 2-5 ppm
CCCCCCCC/C=C\CCCCCCCC(=O)O [oleic acid] | 1 | 3.5 |  | 3.5 | 1 |  | toxicity to honeybee larvae (footnote b) [4]: ^btoxic to honeybee larvae
CCCCCCCCCCCCCCCCCC(=O)O [stearic acid] | > 20 | > 70 |  | > 35 | > 10 |  | Ndead larvae day 1 [4, 12]: 0; Ndead larvae day 2 [4, 12]: 0; Ndead larvae day 3 [4, 12]: 1; Ndead larvae day 4 [4, 12]: 0; Ndead larvae day 5 [4, 12]: 1; Ndead larvae day 6 [4, 12]: 3; Ndead larvae day 7 [4, 12]: 1; Ndead larvae total [4, 12]: 6
CC(O)C(=O)O (stereo not shown) [LA (C+), lactic acid] |  |  |  |  |  |  | Inhibition zone (mm) [5]: 5 mm
